The record followed here is patent US20010002257A1, “Composition comprising a lipoamino acid and the constituents of a tannin-rich plant extract, and cosmetic use thereof” (priority 1997, published 2001).

The subject of one assay is Staphylococcus aureus. The assay can be described thus: Minimum inhibitory concentration at pH 5 on growth of Staphylococcus aureus. In kind it is cell-based. The following applies: Staph. Aureus, pH 5, product alone. The method, then: (§1) a) The minimum inhibitory concentration, at pH 5, of composition according to the invention on the growth of the strains below was determined:
(§2) b) The minimum inhibitory concentration, at pH 5, on the growth of the same strains for an octanoylglycine+zinc gluconate combination was determined.

A further assay has as its system lipase. The assay can be described thus: Anti-lipase test: titration of free fatty acids formed from triglycerides. In kind it is biochemical. How it is done: The test involves assaying the free fatty acids obtained by degradation of the triglycerides with lipase. A known amount of triglycerides (“Lipase Substrate” sold by the company Sigma), a known amount of lipase (“Enzyme Control 2E” sold by the company Sigma) and the test composition are placed together in a tube. After an incubation period of three hours at 37° C., the enzymatic reaction is stopped and the free fatty acids formed are assayed by titration with 0.05 M sodium hydroxide. The results are expressed as a percentage of inhibition of the enzyme by the composition considered, by comparing it with a control test.

Another assay relates to Staphylococcus epidermis. Briefly: Minimum inhibitory concentration at pH 5 on growth of Staphylococcus epidermis. In kind it is cell-based. The following applies: Staph. Epidermis, pH 5, product alone. How it is done: as §1, §2
In another assay the test system is Propionibacterium acnes. Briefly: Minimum inhibitory concentration at pH 5 on growth of Propionibacterium acnes. The following applies: P. acnes, pH 5, product alone. In kind it is cell-based. How it is done:
as §1, §2

For assay [1], the target named is T1, human leukocytic elastase (HLE) (Homo sapiens, UniProt P08246).
T1 sequence (P08246 30-267): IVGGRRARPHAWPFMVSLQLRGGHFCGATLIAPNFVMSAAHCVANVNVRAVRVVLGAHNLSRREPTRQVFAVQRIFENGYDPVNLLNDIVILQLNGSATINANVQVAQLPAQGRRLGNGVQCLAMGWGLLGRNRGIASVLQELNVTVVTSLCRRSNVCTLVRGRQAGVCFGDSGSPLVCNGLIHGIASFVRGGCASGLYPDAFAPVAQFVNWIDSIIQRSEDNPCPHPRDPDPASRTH
The assay can be described thus: Anti-elastase test: hydrolysis of N-methoxysuccinyl-alanine-proline-valine-para-nitroanilide, spectrophotometry at 410 nm. In kind it is biochemical. The method, then: Such a substance can be, for example, N-methoxysuccinyl-alanine-proline-valine-para-nitroanilide, a normally colourless substance which releases, by hydrolysis with human leukocytic elastase, a coloured product, para-nitroaniline, whose appearance kinetics can be monitored by spectrophotometry at 410 nm.
The reaction is carried out in a spectrophotometer thermostatically set at 25° C. and equipped with a sample changer. All of the kinetics are carried out a minimum of three times, the average and the standard deviation then being calculated for the three values obtained.
The presence of a molecule with anti-elastase activity is reflected by a limitation of the appearance of the coloured product and the anti-elastase effect can then be calculated relative to a control curve obtained in the absence or the said molecule.
A correlation thus exists between the percentage of inhibition of the appearance of the coloured product by the test compound and the percentage of inhibition of human leukocytic elastase.

Take zinc gluconate: the minimum inhibitory concentration is given as 0.5% in the assay with Staphylococcus aureus, 10.5% with Staphylococcus epidermis and 1% with Propionibacterium acnes. For the same compound, the “percentage of inhibition of lipase” value with lipase (0.13% solution of zinc gluconate, same operating conditions) was 40%.
In the case of `CCCCCCCC(=O)NCC(=O)O` [octanoylglycine], the minimum inhibitory concentration came out at 0.25% with Staphylococcus aureus, 0.20% in the assay with Staphylococcus epidermis and 0.5% with Propionibacterium acnes. Also, the “% inhibition of elastase” value in assay [1] (0.625% octanoylglycine alone) stood at 5%. Moreover, the “inhibitory activity on elastase (in words)” value in assay [1] (at the concentrations tested) is recorded as “no inhibitory activity”. For the same compound, the “percentage of inhibition of lipase” value in the assay on lipase (1.6% octanoylglycine, 3 hours at 37° C.) was determined as 44%.
